Reference: the supplement of paper PMC10307832

Legend:
Experiment in all cases: relative viability (nuclei count vs DMSO), 5 days (fraction); higher = more cells survive
QS11 + Crizotinib = compound: C1CC2=C(C1)C=C(C=C2)OC3=NC(=C4C(=N3)N(C=N4)CC5=CC=C(C=C5)C6=CC=CC=C6)N[C@@H](CC7=CC=CC=C7)CO [QS11] + C[C@@H](Oc1cc(-c2cnn(C3CCNCC3)c2)cnc1N)c1c(Cl)ccc(F)c1Cl [Crizotinib] (partner 1 µM)
In short: (§1)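 Relative viability equals treated-well nuclei counts divided by vehicle-well nuclei counts. Counts came from 4× images of lung cancer cell lines grown in 1536-well plates for 5 days after pin-tool dosing on the day after seeding. Dosing used one drug alone or a fixed anchor-drug dose plus five library-drug doses (not always all listed) in √10 steps, and values are medians of duplicate plates.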

[1] = compound: C[As](C)SC[C@H](NC(=O)CC[C@H](N)C(=O)O)C(=O)NCC(=O)O [Darinaparsin] + CC1(C)CCC(c2ccc(Cl)cc2)=C(CN2CCN(c3ccc(C(=O)NS(=O)(=O)c4ccc(N[C@H](CCN5CCOCC5)CSc5ccccc5)c(S(=O)(=O)C(F)(F)F)c4)cc3)CC2)C1 [Navitoclax] (partner 0.5 µM)
In short: as §1

Darinaparsin + Olaparib = compound: C[As](C)SC[C@H](NC(=O)CC[C@H](N)C(=O)O)C(=O)NCC(=O)O [Darinaparsin] + O=C(c1cc(Cc2n[nH]c(=O)c3ccccc23)ccc1F)N1CCN(C(=O)C2CC2)CC1 [Olaparib] (partner 8 µM)
In short: as §1

QS11 + Vorinostat = compound: C1CC2=C(C1)C=C(C=C2)OC3=NC(=C4C(=N3)N(C=N4)CC5=CC=C(C=C5)C6=CC=CC=C6)N[C@@H](CC7=CC=CC=C7)CO [QS11] + O=C(CCCCCCC(=O)Nc1ccccc1)NO [Vorinostat] (partner 1 µM)
In short: as §1

| Cell Line | relative viability (QS11 + Crizotinib; first compound 0.08 µM) | relative viability (QS11 + Crizotinib; first compound 0.253 µM) | relative viability (QS11 + Crizotinib; first compound 0.8 µM) | relative viability (QS11 + Crizotinib; first compound 2.53 µM) | relative viability (QS11 + Crizotinib; first compound 8 µM) | relative viability ([1]; first compound 0.08 µM) | relative viability ([1]; first compound 0.8 µM) | relative viability ([1]; first compound 2.53 µM) | relative viability ([1]; first compound 8 µM) | relative viability (Darinaparsin + Olaparib; first compound 0.08 µM) | relative viability (Darinaparsin + Olaparib; first compound 0.8 µM) | relative viability (Darinaparsin + Olaparib; first compound 2.53 µM) | relative viability (Darinaparsin + Olaparib; first compound 8 µM) | relative viability (QS11 + Vorinostat; first compound 0.08 µM) | relative viability (QS11 + Vorinostat; first compound 0.253 µM) | relative viability (QS11 + Vorinostat; first compound 0.8 µM) | relative viability (QS11 + Vorinostat; first compound 2.53 µM) | relative viability (QS11 + Vorinostat; first compound 8 µM) |
| --- | --- | --- | --- | --- | --- | --- | --- | --- | --- | --- | --- | --- | --- | --- | --- | --- | --- | --- |
| NCI-H1975 | 1.08 | 1.03 | 0.853 | 1.16 | 0.817 | 1.26 | 1.15 | 1.11 | 1.45 | 1.09 | 0.782 | 0.808 | 1.02 | 0.669 | 0.783 | 0.752 | 0.795 | 0.654 |
| NCI-H1993 | 0.974 | 0.756 | 0.868 | 0.827 | 0.771 | 0.801 | 0.836 | 1.04 | 1.16 | 1.06 | 1.01 | 1.1 | 1.08 | 0.972 | 0.629 | 0.776 | 0.983 | 0.498 |
| NCI-H2009 | 1.02 | 1.09 | 0.882 | 1.03 | 0.791 | 1.35 | 1.11 | 1.11 | 1.06 | 0.715 | 0.769 | 0.628 | 0.72 | 0.757 | 0.699 | 0.635 | 0.707 | 0.603 |
| NCI-H2023 | 0.774 | 0.537 | 0.586 | 0.641 | 0.648 | 1.08 | 1.07 | 0.951 | 1.2 | 0.721 | 0.407 | 0.416 | 0.434 | 0.417 | 0.655 | 0.527 | 0.759 | 0.318 |
| NCI-H2085 | 0.907 | 0.95 | 0.84 | 0.776 | 0.802 | 1.36 | 1.18 | 1.09 | 1.2 | 0.866 | 0.775 | 0.792 | 0.745 | 0.743 | 0.72 | 0.699 | 0.912 | 0.806 |
| NCI-H2087 | 0.849 | 0.794 | 0.65 | 0.652 | 0.573 | 1.3 | 1.04 | 1.01 | 1.13 | 0.797 | 0.527 | 0.572 | 0.701 | 1.03 | 0.667 | 0.599 | 0.625 | 0.665 |
| NCI-H2126 | 1.05 | 1 | 0.855 | 0.897 | 0.758 | 0.949 | 0.835 | 0.856 | 0.86 | 0.986 | 0.886 | 0.84 | 1.12 | 0.801 | 0.777 | 0.717 | 0.732 | 0.661 |
| NCI-H2170 | 1.32 | 1.1 | 1.02 | 1.12 | 1.51 | 0.615 | 0.524 | 0.559 | 0.69 | 0.722 | 0.662 | 0.614 | 0.543 | 0.819 | 0.85 | 0.664 | 0.796 | 1.07 |
